# Laboratory results: patent US12533339B2, “Small molecule antiviral drug treatment for human papillomavirus infections” (THE TRUSTEES OF INDIANA UNIVERSITY, priority 2020, dated 2026)
# Columns and labels:
# E6C51S/E6AP = E6C51S/E6AP (Human papillomavirus type 16, UniProt P03126, C58S); assay: E6/E6AP binding assay (amylose-bound MBP-16E6, E6AP-BAP activity), C51S 16E6; set-up: species or system HPV-16; settings: for % Inhibition @ 10 μM E6C51S/E6AP: 10 μM compound; for % Inhibition @ 100 μM E6C51S/E6AP: 100 μM compound
# E6 WT/E6AP [1] = target: T1, E6 WT/E6AP (Human papillomavirus type 16, UniProt P03126); assay: biochemical; type: binding; settings: WT 16E6; for inhibition at 10 µM: 10 μM compound; for inhibition at 100 µM: 100 μM compound
# E6 WT/E6AP [2] = target: T1, E6 WT/E6AP; assay: biochemical; type: binding; settings: for Emax: 24 h, read-out: FP maximal inhibition (max %) E6 WT/E6AP; for IC50: FP IC50 at 24 h (μM) E6 WT/E6AP
# Sequence of E6C51S/E6AP (P03126 whole entry C58S, looked up): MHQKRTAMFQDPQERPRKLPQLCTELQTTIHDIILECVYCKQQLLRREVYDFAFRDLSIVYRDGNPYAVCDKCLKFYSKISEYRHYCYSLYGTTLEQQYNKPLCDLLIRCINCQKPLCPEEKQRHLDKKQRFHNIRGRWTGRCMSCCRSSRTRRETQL
# T1 sequence (P03126 8-158): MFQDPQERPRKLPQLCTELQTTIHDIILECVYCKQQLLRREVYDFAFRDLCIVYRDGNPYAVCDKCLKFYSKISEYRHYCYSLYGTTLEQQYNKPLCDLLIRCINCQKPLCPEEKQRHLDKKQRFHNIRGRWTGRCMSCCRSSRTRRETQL
Structure (SMILES),% Inhibition @ 10 μM E6C51S/E6AP (E6C51S/E6AP) [%],% Inhibition @ 100 μM E6C51S/E6AP (E6C51S/E6AP) [%],inhibition at 10 µM (E6 WT/E6AP [1]) [%],inhibition at 100 µM (E6 WT/E6AP [1]) [%],Emax (E6 WT/E6AP [2]) [%],IC50 (E6 WT/E6AP [2]) [µM],FP maximal inhibition (max %) E6 WT/E6AP (E6 WT/E6AP [2]; at 24 h)
"Cc1sc2nc(C3CC3)nc(N3CCN(C(=O)CCl)CC3)c2c1C [EIN-129, 2-chloro-1-(4-(2-cyclopropyl-5,6-dimethylthieno[2,3-d]pyrimidin-4-yl)piperazin-1-yl)ethan-1-one]",57 ± 12,103 ± 5,81 ± 16,119 ± 13,,,
"O=C(CCl)N1CCCN(C(=O)CN2CCc3sccc3C2c2cccc(F)c2)CC1 (centres unmarked) [EIN-119, 2-chloro-1-(4-(2-(4-(3-fluorophenyl)-6,7-dihydrothieno[3,2-c]pyridin-5(4H)-yl)acetyl)-1,4-diazepan-1-yl)ethan-1-one]",9 ± 7,34 ± 7,33 ± 6,61 ± 1,,,
"CCc1nc(N2CCN(C(=O)CCl)CC2)c2c3c(sc2n1)CCCC3 [EIN-131, 2-chloro-1-(4-(2-ethyl-5,6,7,8-tetrahydrobenzo[4,5]thieno[2,3-d]pyrimidin-4-yl)piperazin-1-yl)ethan-1-one]",,,24 ± 3,65 ± 3,,,
"Cc1sc2nc(CCc3ccccc3)nc(N3CCN(C(=O)CCl)CC3)c2c1C [EIN-128, 2-chloro-1-(4-(5,6-dimethyl-2-phenethylthieno[2,3-d]pyrimidin-4-yl)piperazin-1-yl)ethan-1-one]",19 ± 8,60 ± 3,47 ± 14,106 ± 11,,,
"CCCCc1nc(N2CCN(C(=O)CCl)CC2)c2c3c(sc2n1)CCCC3 [EIN-126, 1-(4-(2-butyl-5,6,7,8-tetrahydrobenzo[4,5]thieno[2,3-d]pyrimidin-4-yl)piperazin-1-yl)-2-chloroethan-1-one]",12 ± 5,34 ± 2,18 ± 5,63 ± 1,,,
"C=CC(=O)N1CCN(c2nc(-c3ccc(OC)cc3F)nc3ccccc23)CC1 [EIN-164, 1-(4-(2-(2-fluoro-4-methoxyphenyl)quinazolin-4-yl)piperazin-1-yl)prop-2-en-1-one]",,,,,100,22.9 ± 1.3,
"C=CC(=O)N1CCN(c2nc(CCc3cccc(OC)c3)nc3sc4c(c23)CCCC4)CC1 [EIN-151, 1-(4-(2-(3-methoxyphenethyl)-5,6,7,8-tetrahydrobenzo[4,5]thieno[2,3-d]pyrimidin-4-yl)piperazin-1-yl)prop-2-en-1-one]",,,,,,,(max 71%)
"Cc1ccccc1C1c2ccsc2CCN1CC(=O)N1CCN(C(=O)CCl)C(C)C1 (centres unmarked) [EIN-118, 2-chloro-1-(2-methyl-4-(2-(4-(o-tolyl)-6,7-dihydrothieno[3,2-c]pyridin-5(4H)-yl)acetyl)piperazin-1-yl)ethan-1-one]",12 ± 11,79 ± 5,49 ± 5,98 ± 2,,,
"C=CC(=O)N1CCN(c2nc(N(C)Cc3ccccc3F)nc3sc4c(c23)CCCC4)CC1 [EIN-140, 1-(4-(2-((2-fluorobenzyl)(methyl)amino)-5,6,7,8-tetrahydrobenzo[4,5]thieno[2,3-d]pyrimidin-4-yl)piperazin-1-yl)prop-2-en-1-one]",0,0,6 ± 6,17 ± 4,,,
"CC1CN(C(=O)CN2CCc3sccc3C2c2cccc(F)c2)CCN1C(=O)CCl (centres unmarked) [EIN-120, 2-chloro-1-(4-(2-(4-(3-fluorophenyl)-6,7-dihydrothieno[3,2-c]pyridin-5(4H)-yl)acetyl)-2-methylpiperazin-1-yl)ethan-1-one]",12 ± 5,34 ± 2,18 ± 5,63 ± 1,,,
"C=CC(=O)N1CCN(c2nc(-c3ccc(OC4CC4)cc3)nc3ccccc23)CC1 [EIN-163, 1-(4-(2-(4-cyclopropoxyphenyl)quinazolin-4-yl)piperazin-1-yl)prop-2-en-1-one]",,,,,100,41.6 ± 2.8,
"C=CC(=O)N1CCN(c2nc(CCc3cccc(F)c3)nc3ccccc23)CC1 [EIN-158, 1-(4-(2-(3-fluorophenethyl)quinazolin-4-yl)piperazin-1-yl)prop-2-en-1-one]",,,,,100,52.8 ± 2.8,
"C=CC(=O)N1CCN(c2nc(N(C)Cc3ccc(F)cc3)nc3sc4c(c23)CCCC4)CC1 [EIN-142, 1-(4-(2-((4-fluorobenzyl)(methyl)amino)-5,6,7,8-tetrahydrobenzo[4,5]thieno[2,3-d]pyrimidin-4-yl)piperazin-1-yl)prop-2-en-1-one]",0,0,17 ± 4,28 ± 3,,,
"C=CC(=O)N1CCN(c2nc(-c3ccc(OC)cc3)nc3ccccc23)CC1 [EIN-161, 1-(4-(2-(4-methoxyphenyl)quinazolin-4-yl)piperazin-1-yl)prop-2-en-1-one]",,,,,91,13.3 ± 1.9,
"Cc1nc(N2CCN(C(=O)CCl)CC2)c2c3c(sc2n1)CCCC3 [EIN-123, 2-chloro-1-(4-(2-methyl-5,6,7,8-tetrahydrobenzo[4,5]thieno[2,3-d]pyrimidin-4-yl)piperazin-1-yl)ethan-1-one]",44 ± 10,90 ± 6,58 ± 12,114 ± 11,,,
"O=C(CCl)N1CCN(c2nc(Cc3ccccc3)nc3sc4c(c23)CCCC4)CC1 [EIN-127, 1-(4-(2-benzyl-5,6,7,8-tetrahydrobenzo[4,5]thieno[2,3-d]pyrimidin-4-yl)piperazin-1-yl)-2-chloroethan-1-one]",41 ± 5,79 ± 4,57 ± 14,106 ± 11,,,
"C=CC(=O)N1CCN(c2nc(N(C)Cc3cccc(F)c3)nc3sc4c(c23)CCCC4)CC1 [EIN-141, 1-(4-(2-((3-fluorobenzyl)(methyl)amino)-5,6,7,8-tetrahydrobenzo[4,5]thieno[2,3-d]pyrimidin-4-yl)piperazin-1-yl)prop-2-en-1-one]",0,0,0,18 ± 5,,,
"C=CC(=O)N1CCN(c2nc(-c3ccccc3OC)nc3ccccc23)CC1 [EIN-160, 1-(4-(2-(2-methoxyphenyl)quinazolin-4-yl)piperazin-1-yl)prop-2-en-1-one]",,,,,100,128 ± 2.3,
"C=CC(=O)N1CCN(c2nc(N(C)Cc3ccccc3)nc3sc4c(c23)CCCC4)CC1 [EIN-139, 1-(4-(2-(benzyl(methyl)amino)-5,6,7,8-tetrahydrobenzo[4,5]thieno[2,3-d]pyrimidin-4-yl)piperazin-1-yl)prop-2-en-1-one]",0,6 ± 3,13 ± 7,21 ± 4,8,33.1 ± 1.3,
"Cc1ccccc1C1c2ccsc2CCN1C(C)C(=O)N1CCCN(C(=O)CCl)CC1 (centres unmarked) [EIN-117, 1-(4-(2-chloroacetyl)-1,4-diazepan-1-yl)-2-(4-(o-tolyl)-6,7-dihydrothieno[3,2-c]pyridin-5(4H)-yl)propan-1-one]",,,17 ± 1,33 ± 7,,,
"C=CC(=O)N1CCN(c2nc(-c3ccc(OC)cc3)nc3cccnc23)CC1 [EIN-165, 1-(4-(2-(4-methoxyphenyl)pyrido[3,2-d]pyrimidin-4-yl)piperazin-1-yl)prop-2-en-1-one]",,,,,100,38.2 ± 2.1,
"CCCCc1nc(N2CCN(C(=O)CCl)CC2)c2c3c(sc2n1)CC(C)CC3 (centres unmarked) [EIN-124, 1-(4-(2-butyl-7-methyl-5,6,7,8-tetrahydrobenzo[4,5]thieno[2,3-d]pyrimidin-4-yl)piperazin-1-yl)-2-chloroethan-1-one]",49 ± 11,90 ± 5,71 ± 13,113 ± 13,,,
"C=CC(=O)N1CCN(c2nc(-c3ccc(OC(F)(F)F)cc3)nc3ccccc23)CC1 [EIN-162, 1-(4-(2-(4-(trifluoroniethoxy)phenyl)quinazolin-4-yl)piperazin-1-yl)prop-2-en-1-one]",,,,,100,105 ± 13.7,
"COc1ccc(C2c3ccsc3CCN2CC(=O)N2CCN(C(=O)CCl)C(C)C2)cc1 (centres unmarked) [EIN-121, 2-chloro-1-(4-(2-(4-(4-methoxyphenyl)-6,7-dihydrothieno[3,2-c]pyridin-5(4H)-yl)acetyl)-2-methylpiperazin-1-yl)ethan-1-one]",,,24 ± 2,52 ± 1,,,
"C=CC(=O)N1CCN(c2nc(CCc3ccc(F)cc3)nc3ccccc23)CC1 [EIN-153, 1-(4-(2-(4-fluorophenethyl)quinazolin-4-yl)piperazin-1-yl)prop-2-en-1-one]",,,,,100,27.7 ± 1.3,
"CCCc1nc(N2CCN(C(=O)CCl)CC2)c2c3c(sc2n1)CC(C)CC3 (centres unmarked) [EIN-130, 2-chloro-1-(4-(7-methyl-2-propyl-5,6,7,8-tetrahydrobenzo[4,5]thieno[2,3-d]pyrimidin-4-yl)piperazin-1-yl)ethan-1-one]",52 ± 12,85 ± 6,46 ± 9,100 ± 9,,,
"C=CC(=O)N1CCN(c2nc(-c3cccc(OC)c3)nc3ccccc23)CC1 [EIN-159, 1-(4-(2-(3-methoxyphenyl)quinazolin-4-yl)piperazin-1-yl)prop-2-en-1-one]",,,,,91,14.5 ± 1.3,
